Entries after “also recorded” stand apart in the source; their conditions may differ.
How the values were obtained:
[1] = system: CD mice; experiment: Morphine-induced analgesic tolerance, tail-flick test; conditions: mouse, in vivo
Method: All procedures were conducted in adherence to the European Community Council Directive for Care and Use of Laboratory Animals.
Mice were divided into 6 groups. Group 1 (n=8) received drug vehicles (veh/veh). […] Animals were treated twice daily (between 9:00 and 10:00 a.m. and 9:00 and 10:00 p.m.).
Morphine hydrochloride was purchased from Salars (Milano, Italy). Morphine (30 mg/kg) was dissolved in NaCl […] and was injected intraperitoneally (IP) twice a day at the indicated doses in a volume of 0.2 ml per mice. […] It was dissolved in distilled water and was administered per o.s. at the doses of 10 mg/kg and 30 mg/kg in a volume of 0.6 ml per mice.
Two different tests were used to monitor analgesic responses. The tail-flick test was performed 45 min after the morning injection of morphine, and the tail-immersion test was performed 45 min after the evening injection of morphine.
For the tail-flick test, each mouse was gently restrained in a soft tissue pocket, and the tail (1 cm from the tip) was exposed to a hot light beam. Latency for tail-flick was measured with a 6 seconds cut-off time. For the tail-immersion test, each mouse was restrained in a soft tissue pocket, and the distal half of the tail dipped into a water bath set at 52 C°. Latency for removing the tail from the hot water was measured with a 10 seconds cut-off time.

[2] = system: CD mice; conditions: mouse, in vivo
[3] = system: msP rats; experiment: Voluntary ethanol intake, subchronic (7 days) treatment, alcohol available 24 hours/day; assay type: in vivo; conditions: naltrexone […] IP alone or with pioglitazone 10.0 or 30.0 mg/kg OS, overall p<0.01
Method: At the beginning of the experiments, msP rats were allowed free choice between water and 10% (v/v) alcohol 24 h/day for at least 15 days. The fluids were offered in graduated drinking tubes equipped with metallic drinking spouts. The position (to the right or left) of alcohol and water drinking tubes was changed daily to avoid the development of side preference. […] Alcohol, water and food intakes were measured.
Before starting the treatment, rats were trained to gavage administration procedures for three days, during which they received vehicle (distilled water).
(§1) Alcohol, water and food intakes were monitored at 2, 8 and 24 hours. Fluids and food intakes were monitored for three additional days after the end of the drug treatment period.
as §1

[4] = system: msP rats; experiment: Cue-induced reinstatement of alcohol seeking; assay type: in vivo; conditions: naltrexone, both doses (0.25 and 1.0 mg/kg) one hour before test; p<0.01
[5] = system: msP rats; experiment: Yohimbine-induced (stress-induced) reinstatement of alcohol seeking; assay type: in vivo; conditions: naltrexone 0.25 and 1.0 mg/kg IP 1 hour before test
[6] = system: human patients; experiment: Observational study of alcohol abuse in human patients (pioglitazone 30 mg/day or naltrexone 50 mg/day + psychotherapy); assay type: in vivo; conditions: for CDT: mean value of blood tests
From the text: Patients were instructed to record in a personal logbook the number of drinks per day and the time of the day drinks occurred. At the end of the study, the logbooks were returned to the clinical personnel who analyzed the data.
In addition, biochemical parameters to ascertain alcohol detoxification and to measure recovery of physiological functions (i.e., hepatic function) were monitored monthly. Hematological parameters measured included: mean corpuscular volume (MCV); gamma-GT; aspartate aminotransferase (AST); alanine aminotransferase (ALT); and carbohydrate-deficient transferring (CDT). MCV and CDT are biomarkers for ethanol consumption, and GGT, ALT and AST are biomarkers for hepatic functionality.
Data were analyzed by analysis of variance followed by Newman-Keuls post hoc tests when appropriate.

[7] = system: Long Evans rats; experiment: Yohimbine-induced reinstatement of nicotine seeking; assay type: in vivo; conditions: yohimbine 2.0 mg/kg/ml; p<0.001
Method: Stress and anxiety are major factors in resuming nicotine use in former abstinent users. […] Briefly, following acquisition of a stable baseline of IV nicotine self-administration (30µg/0.1ml/infusion), male Long Evans rats (n=8) were subjected to an extinction period of 5 days.
Reinstatement experiments and relative drug treatments were performed every third day. Between reinstatements, extinction baseline was re-established.

**Q.** With `CN1CC[C@]23c4c5ccc(O)c4O[C@H]2[C@@H](O)C=C[C@H]3[C@H]1C5` [morphine] as the molecule, how does the “time to tail-flick on day 1, 3 and 5” value [1] read?
**A.** significantly increased the time to tail-flick

**Q.** What about the “time to tail-flick on test days 7 and 9” value [1] of the same molecule?
**A.** non significant difference from controls

**Q.** And the “analgesic effect (tail-immersion) on test day 9” value [2]?
**A.** marginally significant

**Q.** What about the “tail-immersion latency on day 1, 3, 5, and 7” value [2] of the same molecule?
**A.** significantly increased the time to tail-flick

**Q.** What does the source list for `O=C1CC[C@@]2(O)[C@H]3Cc4ccc(O)c5c4[C@@]2(CCN3CC2CC2)[C@H]1O5` [naltrexone]?
**A.** voluntary ethanol intake [3]: significantly reduced; conditioned (cue-induced) reinstatement of alcohol-seeking [4]: significantly reduced reinstatement of ethanol seeking; also recorded: significantly reduced cue-induced reinstatement of alcohol-seeking; yohimbine-induced reinstatement of alcohol seeking [5]: did not significantly reduce the effect of yohimbine; Depression Scale M.A.D.R.S (mean score values) ([6]; T=0 (beginning of the treatment)): 19; Depression Scale M.A.D.R.S (mean score values) ([6]; T=1.1 (month 1, week 1)): 16; Depression Scale M.A.D.R.S (mean score values) ([6]; T=1.2 (month 1, week 2)): 18; effect on daily drinks, naltrexone vs pioglitazone ([6]; first two weeks of treatment, P<0.05): more effective than pioglitazone; CDT ([6]; T0): 3.6; CDT ([6]; T1= 4 weeks): 3.0; CDT ([6]; T2= 8 weeks): 2.5; decrease in MCV and CDT ([6]; naltrexone treated patients (NTX), two months): to a lesser extent compared to the pioglitazone group; all the five biomarkers (MCV, GGT, ALT, AST, CDT): difference from controls (psychotherapy alone) ([6]; post hoc tests, P<0.001): statistical difference; anxiety score: difference from controls ([6]; post hoc tests, P<0.001): statistically significant difference; obsessive compulsive score for alcohol (OCDS): decrease, difference from controls ([6]; post hoc tests, P<0.001): statistically significant difference; depression score (MADRS): difference from controls ([6]; post hoc tests, P<0.001 for pioglitazone): not naltrexone; hepatic parameters (GGT, ALT, AST) ([6]; two months of treatment): ameliorated; daily ethanol intake (number of daily drinks) ([6]; vs psychotherapy only): significantly reduced daily ethanol intake; number of abstinence days ([6]; vs psychotherapy only): increased the number of abstinence days

**Q.** For `COC(=O)[C@@H]1[C@H]2C[C@H]3c4[nH]c5ccccc5c4CCN3C[C@@H]2CC[C@@H]1O` [yohimbine], which “reinstatement of responding (nicotine seeking) compared to extinction” value [7] is on record?
**A.** significant reinstatement of responding

From patent publication EP3398599A1, “COMPOSITIONS AND METHODS FOR PROPHYLAXIS AND TREATMENT OF ADDICTIONS” (priority 2009, dated 2010)
